10 compounds from ChEMBL document CHEMBL4177646, “Discovery of novel nitroimidazole enols as Pseudomonas aeruginosa DNA cleavage agents” (Bioorg Med Chem, 2017) can be followed below.

Common to all, as to assay type: functional
Test [1] deals with Pseudomonas aeruginosa. Nature of the test: Potency index, ratio of norfloxacin MIC to compound MIC for Pseudomonas aeruginosa ATCC 27853.
Test [2] deals with Staphylococcus aureus. Nature of the test: Antibacterial activity against Staphylococcus aureus ATCC 29213 after 24 hrs by micro broth dilution method. Particulars: ATCC 29213, 24 h. On the technique in general: Dilution methods test growth across graded concentrations, often in twofold steps.
Test [3] has as its system Candida albicans. Description: Antifungal activity against Candida albicans ATCC 90023 after 24 hrs by micro broth dilution method. Particulars: ATCC 90023, 24 h.
Test [4] relates to Staphylococcus aureus. Nature of the test: Antibacterial activity against drug-resistant Staphylococcus aureus after 24 hrs by micro broth dilution method.
Test [5] relates to Staphylococcus aureus. Description: Antibacterial activity against Staphylococcus aureus ATCC 25923 after 24 hrs by micro broth dilution method. Particulars: ATCC 25923, 24 h.
The test system of test [6] is Candida albicans. Description: Antifungal activity against drug-resistant Candida albicans after 24 hrs by micro broth dilution method.
Test [7] deals with Pseudomonas aeruginosa. Description: Antibacterial activity against drug-resistant Pseudomonas aeruginosa after 24 hrs by micro broth dilution method.
Test [8] relates to Pseudomonas aeruginosa. Description: Antibacterial activity against Pseudomonas aeruginosa ATCC 27853 after 24 hrs by micro broth dilution method. Conditions: ATCC 27853, 24 h.
The test system of test [9] is Escherichia coli. Nature of the test: Antibacterial activity against drug-resistant Escherichia coli after 24 hrs by micro broth dilution method.
Test [10] has as its system Escherichia coli. Description: Antibacterial activity against Escherichia coli ATCC 25922 after 24 hrs by micro broth dilution method. Particulars: ATCC 25922, 24 h.
Test [11] deals with Staphylococcus aureus. Description: Antibacterial activity against methicillin-resistant Staphylococcus aureus N315 after 24 hrs by micro broth dilution method. Conditions: N315, 24 h.
For another test, the system named is Candida tropicalis. Description: Antifungal activity against Candida tropicalis after 24 hrs by micro broth dilution method.

In brackets after ≈: the same amount, converted by molar mass.

Consider `COc1cc(/C=C(\C(C)=O)n2c([N+](=O)[O-])cnc2C)ccc1O`, for which, in the test on Pseudomonas aeruginosa [1], the Ratio is recorded as 4 - 16. Moreover, the MIC (commonly the least concentration at which growth counts as inhibited) is 1600 µM (≈ 508 µg/mL) in the test on Staphylococcus aureus [2]; 128 µg/mL (≈ 403 µM) in the test on Candida albicans [3]; 1600 µM (≈ 508 µg/mL) with Staphylococcus aureus [4]; 400 µM (≈ 127 µg/mL) against Staphylococcus aureus [5]; 256 µg/mL (≈ 807 µM) against Candida albicans [6]; 800 µM (≈ 254 µg/mL) with Pseudomonas aeruginosa [7]. The minimum inhibitory concentration (MIC) with Pseudomonas aeruginosa [8] is 400 µM (≈ 127 µg/mL); in the test with Escherichia coli [9], 800 µM (≈ 254 µg/mL); in the test with Escherichia coli [10] it was 100 µM (≈ 31.7 µg/mL); with Staphylococcus aureus [11], 1600 µM (≈ 508 µg/mL); in the test on Candida tropicalis, 256 µg/mL (≈ 807 µM).
Consider `Cc1ncc([N+](=O)[O-])n1/C(=C/c1ccc(Cl)cc1)C(C)O` (stereo not given), for which the MIC stood at 830 µM (≈ 255 µg/mL) in the test with Staphylococcus aureus [2]; 16 µg/mL (≈ 52 µM) in the test on Candida albicans [3]; 830 µM (≈ 255 µg/mL) with Staphylococcus aureus [4]; 1670 µM (≈ 514 µg/mL) against Staphylococcus aureus [5]; 512 µg/mL (≈ 1660 µM) in the test with Candida albicans [6]; 1670 µM (≈ 514 µg/mL) in the test on Pseudomonas aeruginosa [7]. The MIC was 410 µM (≈ 126 µg/mL) in the test with Pseudomonas aeruginosa [8]; 1670 µM (≈ 514 µg/mL) with Escherichia coli [9]; 1670 µM (≈ 514 µg/mL) with Escherichia coli [10]; 1670 µM (≈ 514 µg/mL) against Staphylococcus aureus [11]; 256 µg/mL (≈ 832 µM) with Candida tropicalis.
Turning to `Cc1ncc([N+](=O)[O-])n1/C(=C/c1ccc(F)cc1)C(C)O` (stereo not given), the Ratio in the test with Pseudomonas aeruginosa [1] is recorded as 4 - 16. The MIC is 1710 µM (≈ 498 µg/mL) with Staphylococcus aureus [2]; 64 µg/mL (≈ 220 µM) in the test with Candida albicans [3]; 1710 µM (≈ 498 µg/mL) with Staphylococcus aureus [4]; 880 µM (≈ 256 µg/mL) against Staphylococcus aureus [5]; 512 µg/mL (≈ 1760 µM) in the test on Candida albicans [6]; 880 µM (≈ 256 µg/mL) in the test with Pseudomonas aeruginosa [7]. For the same compound, the MIC against Pseudomonas aeruginosa [8] came out at 110 µM (≈ 32 µg/mL); against Escherichia coli [9], 1710 µM (≈ 498 µg/mL); against Escherichia coli [10] it was 440 µM (≈ 128 µg/mL); against Staphylococcus aureus [11], 1760 µM (≈ 513 µg/mL); against Candida tropicalis it was 128 µg/mL (≈ 439 µM).
`CC(=O)/C(=C\c1ccc(Cl)cc1Cl)n1c([N+](=O)[O-])cnc1C`: the MIC was 1650 µM (≈ 561 µg/mL) against Staphylococcus aureus [2]; 128 µg/mL (≈ 376 µM) with Candida albicans [3]; 1650 µM (≈ 561 µg/mL) against Staphylococcus aureus [4]; 830 µM (≈ 282 µg/mL) in the test with Staphylococcus aureus [5]; 512 µg/mL (≈ 1510 µM) with Candida albicans [6]; 1650 µM (≈ 561 µg/mL) against Pseudomonas aeruginosa [7]. The MIC with Pseudomonas aeruginosa [8] stood at 830 µM (≈ 282 µg/mL); in the test with Escherichia coli [9], 1650 µM (≈ 561 µg/mL); in the test with Escherichia coli [10], 1650 µM (≈ 561 µg/mL); with Staphylococcus aureus [11] it was 1650 µM (≈ 561 µg/mL); in the test with Candida tropicalis it was 512 µg/mL (≈ 1510 µM).
In the case of `OC(Cn1cncn1)(Cn1cncn1)c1ccc(F)cc1F` [FLUCONAZOLE], the MIC was 8 µg/mL (≈ 26.1 µM) against Candida albicans [3], 8 µg/mL (≈ 26.1 µM) with Candida albicans [6] and 256 µg/mL (≈ 836 µM) against Candida tropicalis.
For the compound `Cc1ncc([N+](=O)[O-])n1/C(=C/c1ccc(C#N)cc1)C(C)O` (stereo not given), the MIC is 1710 µM (≈ 510 µg/mL) against Staphylococcus aureus [2]; 64 µg/mL (≈ 215 µM) against Candida albicans [3]; 1710 µM (≈ 510 µg/mL) in the test with Staphylococcus aureus [4]; 1710 µM (≈ 510 µg/mL) with Staphylococcus aureus [5]; 512 µg/mL (≈ 1720 µM) against Candida albicans [6]; 1710 µM (≈ 510 µg/mL) against Pseudomonas aeruginosa [7]. Besides, the MIC with Pseudomonas aeruginosa [8] stood at 860 µM (≈ 257 µg/mL); against Escherichia coli [9] it was 1710 µM (≈ 510 µg/mL); against Escherichia coli [10] it was 860 µM (≈ 257 µg/mL); with Staphylococcus aureus [11], 1710 µM (≈ 510 µg/mL); with Candida tropicalis, 512 µg/mL (≈ 1720 µM).
Consider `CC(=O)/C(=C\c1ccc(N(C)C)cc1)n1c([N+](=O)[O-])cnc1C`, for which the Ratio in the test with Pseudomonas aeruginosa [1] is given as 4 - 16. Further, the MIC in the test on Staphylococcus aureus [2] turned out to be 410 µM (≈ 129 µg/mL); against Candida albicans [3], 128 µg/mL (≈ 407 µM); against Staphylococcus aureus [4] it was 1620 µM (≈ 509 µg/mL); in the test with Staphylococcus aureus [5], 1620 µM (≈ 509 µg/mL); in the test on Candida albicans [6] it was 512 µg/mL (≈ 1630 µM); against Pseudomonas aeruginosa [7], 1620 µM (≈ 509 µg/mL). The MIC in the test with Pseudomonas aeruginosa [8] came out at 410 µM (≈ 129 µg/mL); in the test on Escherichia coli [9], 810 µM (≈ 255 µg/mL); in the test on Escherichia coli [10], 810 µM (≈ 255 µg/mL); in the test with Staphylococcus aureus [11], 1620 µM (≈ 509 µg/mL); against Candida tropicalis, 256 µg/mL (≈ 814 µM).
With `CCn1c2ccccc2c2cc(/C=C(\C(C)=O)n3c([N+](=O)[O-])cnc3C)ccc21`, the MIC in the test on Staphylococcus aureus [2] worked out at 1640 µM (≈ 637 µg/mL); against Candida albicans [3], 256 µg/mL (≈ 659 µM); against Staphylococcus aureus [4], 820 µM (≈ 319 µg/mL); against Staphylococcus aureus [5] it was 820 µM (≈ 319 µg/mL); in the test with Candida albicans [6] it was 512 µg/mL (≈ 1320 µM); against Pseudomonas aeruginosa [7], 1640 µM (≈ 637 µg/mL). For the same compound, the MIC in the test on Pseudomonas aeruginosa [8] came to 1640 µM (≈ 637 µg/mL); against Escherichia coli [9], 1640 µM (≈ 637 µg/mL); against Escherichia coli [10], 1640 µM (≈ 637 µg/mL); against Staphylococcus aureus [11] it was 1640 µM (≈ 637 µg/mL); with Candida tropicalis, 256 µg/mL (≈ 659 µM).
As to `CC(=O)/C(=C\c1ccc(C#N)cc1)n1c([N+](=O)[O-])cnc1C`, the MIC worked out at 860 µM (≈ 255 µg/mL) against Staphylococcus aureus [2]; 128 µg/mL (≈ 432 µM) with Candida albicans [3]; 1720 µM (≈ 510 µg/mL) with Staphylococcus aureus [4]; 860 µM (≈ 255 µg/mL) against Staphylococcus aureus [5]; 256 µg/mL (≈ 864 µM) in the test with Candida albicans [6]; 430 µM (≈ 127 µg/mL) in the test on Pseudomonas aeruginosa [7]. The MIC in the test on Pseudomonas aeruginosa [8] is 860 µM (≈ 255 µg/mL); with Escherichia coli [9], 1720 µM (≈ 510 µg/mL); against Escherichia coli [10], 860 µM (≈ 255 µg/mL); against Staphylococcus aureus [11] it was 1720 µM (≈ 510 µg/mL); in the test on Candida tropicalis, 256 µg/mL (≈ 864 µM).
With `CCn1c2ccccc2c2cc(/C=C(\C(C)O)n3c([N+](=O)[O-])cnc3C)ccc21` (stereo not given), the MIC with Staphylococcus aureus [2] was 660 µM (≈ 258 µg/mL); with Candida albicans [3], 512 µg/mL (≈ 1310 µM); against Staphylococcus aureus [4] it was 1310 µM (≈ 511 µg/mL); in the test with Staphylococcus aureus [5] it was 1310 µM (≈ 511 µg/mL); with Candida albicans [6], 512 µg/mL (≈ 1310 µM); with Pseudomonas aeruginosa [7] it was 1310 µM (≈ 511 µg/mL). In addition, the MIC in the test with Pseudomonas aeruginosa [8] turned out to be 1310 µM (≈ 511 µg/mL); in the test with Escherichia coli [9], 1310 µM (≈ 511 µg/mL); in the test with Escherichia coli [10], 1310 µM (≈ 511 µg/mL); against Staphylococcus aureus [11], 1310 µM (≈ 511 µg/mL); in the test with Candida tropicalis, 256 µg/mL (≈ 656 µM).
